Experimental data as given in patent US20260130395A1, “Water Dispersible Botanical Compositions” (Aquila Black Limited, priority 2021, published 2026).

Assay: Stability of cannabinoid compounds and Vitamin E components in Beverage 1 (AB White) by LCMSMS
Assay type: physicochemical
Details: for Stability of Plant-Derived Cannabinoid Compounds in AB White, 8° C.: AB White stored at 8° C.; for Stability of Plant-Derived Cannabinoid Compounds in AB White, 21-25° C.: AB White stored at 21-25° C.

CCCCCc1cc(O)c2c(c1)OC(C)(CCC=C(C)C)C=C2 (centres unmarked) [CBC, cannabichromene]
Stability of Plant-Derived Cannabinoid Compounds in AB White, 8° C. (0 days): 0.320 µg/mL | Stability of Plant-Derived Cannabinoid Compounds in AB White, 8° C. (1 days): 0.314 µg/mL | Stability of Plant-Derived Cannabinoid Compounds in AB White, 8° C. (2 days): 0.315 µg/mL | Stability of Plant-Derived Cannabinoid Compounds in AB White, 8° C. (3 days): 0.322 µg/mL | Stability of Plant-Derived Cannabinoid Compounds in AB White, 8° C. (5 days): 0.322 µg/mL | Stability of Plant-Derived Cannabinoid Compounds in AB White, 8° C. (8 days): 0.318 µg/mL | Stability of Plant-Derived Cannabinoid Compounds in AB White, 8° C. (9 days): 0.319 µg/mL | Stability of Plant-Derived Cannabinoid Compounds in AB White, 8° C. (10 days): 0.314 µg/mL | Stability of Plant-Derived Cannabinoid Compounds in AB White, 8° C. (11 days): 0.314 µg/mL | Stability of Plant-Derived Cannabinoid Compounds in AB White, 8° C. (12 days): 0.319 µg/mL | Stability of Plant-Derived Cannabinoid Compounds in AB White, 8° C. (15 days): 0.317 µg/mL | Stability of Plant-Derived Cannabinoid Compounds in AB White, 8° C. (16 days): 0.320 µg/mL | Stability of Plant-Derived Cannabinoid Compounds in AB White, 8° C. (17 days): 0.315 µg/mL | Stability of Plant-Derived Cannabinoid Compounds in AB White, 8° C. (18 days): 0.312 µg/mL | Stability of Plant-Derived Cannabinoid Compounds in AB White, 8° C. (19 days): 0.317 µg/mL | Stability of Plant-Derived Cannabinoid Compounds in AB White, 8° C. (22 days): 0.315 µg/mL | Stability of Plant-Derived Cannabinoid Compounds in AB White, 8° C. (23 days): 0.321 µg/mL | Stability of Plant-Derived Cannabinoid Compounds in AB White, 8° C. (24 days): 0.316 µg/mL | Stability of Plant-Derived Cannabinoid Compounds in AB White, 8° C. (25 days): 0.310 µg/mL | Stability of Plant-Derived Cannabinoid Compounds in AB White, 8° C. (26 days): 0.316 µg/mL | Stability of Plant-Derived Cannabinoid Compounds in AB White, 8° C. (29 days): 0.321 µg/mL | Stability of Plant-Derived Cannabinoid Compounds in AB White, 8° C. (30 days): 0.31 µg/mL | Stability of Plant-Derived Cannabinoid Compounds in AB White, 8° C. (60 days): 0.316 µg/mL | Stability of Plant-Derived Cannabinoid Compounds in AB White, 8° C. (90 days): 0.318 µg/mL | Stability of Plant-Derived Cannabinoid Compounds in AB White, 8° C. (120 days): 0.311 µg/mL | Stability of Plant-Derived Cannabinoid Compounds in AB White, 8° C. (150 days): 0.314 µg/mL | Stability of Plant-Derived Cannabinoid Compounds in AB White, 8° C. (180 days): 0.319 µg/mL | Stability of Plant-Derived Cannabinoid Compounds in AB White, 8° C. (210 days): 0.309 µg/mL | Stability of Plant-Derived Cannabinoid Compounds in AB White, 8° C. (240 days): 0.316 µg/mL | Stability of Plant-Derived Cannabinoid Compounds in AB White, 8° C. (270 days): 0.316 µg/mL | Stability of Plant-Derived Cannabinoid Compounds in AB White, 8° C. (300 days): 0.313 µg/mL | Stability of Plant-Derived Cannabinoid Compounds in AB White, 8° C. (330 days): 0.316 µg/mL | Stability of Plant-Derived Cannabinoid Compounds in AB White, 8° C. (360 days): 0.306 µg/mL | Stability of Plant-Derived Cannabinoid Compounds in AB White, 8° C. (390 days): 0.310 µg/mL | Stability of Plant-Derived Cannabinoid Compounds in AB White, 8° C. (420 days): 0.307 µg/mL | Stability of Plant-Derived Cannabinoid Compounds in AB White, 8° C. (450 days): 0.312 µg/mL | Stability of Plant-Derived Cannabinoid Compounds in AB White, 8° C. (480 days): 0.305 µg/mL | Stability of Plant-Derived Cannabinoid Compounds in AB White, 8° C. (510 days): 0.295 µg/mL | Stability of Plant-Derived Cannabinoid Compounds in AB White, 8° C. (540 days): 0.299 µg/mL | Stability of Plant-Derived Cannabinoid Compounds in AB White, 8° C. (570 days): 0.293 µg/mL | Stability of Plant-Derived Cannabinoid Compounds in AB White, 21-25° C. (0 days): 0.320 µg/mL | Stability of Plant-Derived Cannabinoid Compounds in AB White, 21-25° C. (1 days): 0.313 µg/mL | Stability of Plant-Derived Cannabinoid Compounds in AB White, 21-25° C. (2 days): 0.318 µg/mL | Stability of Plant-Derived Cannabinoid Compounds in AB White, 21-25° C. (3 days): 0.311 µg/mL | Stability of Plant-Derived Cannabinoid Compounds in AB White, 21-25° C. (5 days): 0.323 µg/mL | Stability of Plant-Derived Cannabinoid Compounds in AB White, 21-25° C. (8 days): 0.319 µg/mL | Stability of Plant-Derived Cannabinoid Compounds in AB White, 21-25° C. (9 days): 0.307 µg/mL | Stability of Plant-Derived Cannabinoid Compounds in AB White, 21-25° C. (10 days): 0.312 µg/mL | Stability of Plant-Derived Cannabinoid Compounds in AB White, 21-25° C. (11 days): 0.311 µg/mL | Stability of Plant-Derived Cannabinoid Compounds in AB White, 21-25° C. (12 days): 0.316 µg/mL | Stability of Plant-Derived Cannabinoid Compounds in AB White, 21-25° C. (15 days): 0.311 µg/mL | Stability of Plant-Derived Cannabinoid Compounds in AB White, 21-25° C. (16 days): 0.321 µg/mL | Stability of Plant-Derived Cannabinoid Compounds in AB White, 21-25° C. (17 days): 0.323 µg/mL | Stability of Plant-Derived Cannabinoid Compounds in AB White, 21-25° C. (18 days): 0.313 µg/mL | Stability of Plant-Derived Cannabinoid Compounds in AB White, 21-25° C. (19 days): 0.316 µg/mL | Stability of Plant-Derived Cannabinoid Compounds in AB White, 21-25° C. (22 days): 0.322 µg/mL | Stability of Plant-Derived Cannabinoid Compounds in AB White, 21-25° C. (23 days): 0.316 µg/mL | Stability of Plant-Derived Cannabinoid Compounds in AB White, 21-25° C. (24 days): 0.308 µg/mL | Stability of Plant-Derived Cannabinoid Compounds in AB White, 21-25° C. (25 days): 0.310 µg/mL | Stability of Plant-Derived Cannabinoid Compounds in AB White, 21-25° C. (26 days): 0.308 µg/mL | Stability of Plant-Derived Cannabinoid Compounds in AB White, 21-25° C. (29 days): 0.317 µg/mL | Stability of Plant-Derived Cannabinoid Compounds in AB White, 21-25° C. (30 days): 0.317 µg/mL | Stability of Plant-Derived Cannabinoid Compounds in AB White, 21-25° C. (60 days): 0.306 µg/mL | Stability of Plant-Derived Cannabinoid Compounds in AB White, 21-25° C. (90 days): 0.305 µg/mL | Stability of Plant-Derived Cannabinoid Compounds in AB White, 21-25° C. (120 days): 0.318 µg/mL | Stability of Plant-Derived Cannabinoid Compounds in AB White, 21-25° C. (150 days): 0.312 µg/mL | Stability of Plant-Derived Cannabinoid Compounds in AB White, 21-25° C. (180 days): 0.315 µg/mL | Stability of Plant-Derived Cannabinoid Compounds in AB White, 21-25° C. (210 days): 0.307 µg/mL | Stability of Plant-Derived Cannabinoid Compounds in AB White, 21-25° C. (240 days): 0.304 µg/mL | Stability of Plant-Derived Cannabinoid Compounds in AB White, 21-25° C. (270 days): 0.316 µg/mL | Stability of Plant-Derived Cannabinoid Compounds in AB White, 21-25° C. (300 days): 0.312 µg/mL | Stability of Plant-Derived Cannabinoid Compounds in AB White, 21-25° C. (330 days): 0.312 µg/mL | Stability of Plant-Derived Cannabinoid Compounds in AB White, 21-25° C. (360 days): 0.310 µg/mL | Stability of Plant-Derived Cannabinoid Compounds in AB White, 21-25° C. (390 days): 0.303 µg/mL | Stability of Plant-Derived Cannabinoid Compounds in AB White, 21-25° C. (420 days): 0.312 µg/mL | Stability of Plant-Derived Cannabinoid Compounds in AB White, 21-25° C. (450 days): 0.310 µg/mL | Stability of Plant-Derived Cannabinoid Compounds in AB White, 21-25° C. (480 days): 0.294 µg/mL | Stability of Plant-Derived Cannabinoid Compounds in AB White, 21-25° C. (510 days): 0.293 µg/mL | Stability of Plant-Derived Cannabinoid Compounds in AB White, 21-25° C. (540 days): 0.294 µg/mL | Stability of Plant-Derived Cannabinoid Compounds in AB White, 21-25° C. (570 days): 0.295 µg/mL
